Data: the NIST ThermoML archive (doi:10.1021/je100598x)
± gives the expanded uncertainty stated by the source.

Assay: cn = amount concentration of the nth substance listed, in mol/dm3
Settings: 101 kPa, Liquid, Direct current cell with electrodes

CCCCCCCCCCCC[N+](C)(C)C.[Br-] [dodecyltrimethylammonium bromide] + O
electrical conductivity (288.15 K, c1 = 0.001961): 0.0157 ± 0.00016 S/m | electrical conductivity (288.15 K, c1 = 0.003846): 0.0294 ± 0.0003 S/m | electrical conductivity (288.15 K, c1 = 0.00566): 0.0421 ± 0.0004 S/m | electrical conductivity (288.15 K, c1 = 0.007407): 0.0542 ± 0.0005 S/m | electrical conductivity (288.15 K, c1 = 0.009091): 0.0654 ± 0.0007 S/m | electrical conductivity (288.15 K, c1 = 0.01071): 0.0762 ± 0.0008 S/m | electrical conductivity (288.15 K, c1 = 0.01228): 0.0863 ± 0.0009 S/m | electrical conductivity (288.15 K, c1 = 0.01379): 0.0954 ± 0.001 S/m | electrical conductivity (288.15 K, c1 = 0.01525): 0.105 ± 0.0011 S/m | electrical conductivity (288.15 K, c1 = 0.01667): 0.1103 ± 0.0011 S/m | electrical conductivity (288.15 K, c1 = 0.01758): 0.1125 ± 0.0011 S/m | electrical conductivity (288.15 K, c1 = 0.01848): 0.1143 ± 0.0011 S/m | electrical conductivity (288.15 K, c1 = 0.01936): 0.116 ± 0.0012 S/m | electrical conductivity (288.15 K, c1 = 0.02021): 0.117 ± 0.0012 S/m | electrical conductivity (288.15 K, c1 = 0.02105): 0.119 ± 0.0012 S/m | electrical conductivity (288.15 K, c1 = 0.02188): 0.1203 ± 0.0012 S/m | electrical conductivity (288.15 K, c1 = 0.02268): 0.1216 ± 0.0012 S/m | electrical conductivity (288.15 K, c1 = 0.02347): 0.1229 ± 0.0012 S/m | electrical conductivity (288.15 K, c1 = 0.02424): 0.1242 ± 0.0012 S/m | electrical conductivity (288.15 K, c1 = 0.025): 0.126 ± 0.0013 S/m | electrical conductivity (288.15 K, c1 = 0.02611): 0.127 ± 0.0013 S/m | electrical conductivity (288.15 K, c1 = 0.02718): 0.129 ± 0.0013 S/m | electrical conductivity (288.15 K, c1 = 0.02823): 0.131 ± 0.0013 S/m | electrical conductivity (288.15 K, c1 = 0.02925): 0.1327 ± 0.0013 S/m | electrical conductivity (288.15 K, c1 = 0.03023): 0.1344 ± 0.0013 S/m | electrical conductivity (293.15 K, c1 = 0.001961): 0.0175 ± 0.00018 S/m | electrical conductivity (293.15 K, c1 = 0.003846): 0.0332 ± 0.0003 S/m | electrical conductivity (293.15 K, c1 = 0.00566): 0.0478 ± 0.0005 S/m | electrical conductivity (293.15 K, c1 = 0.007407): 0.0614 ± 0.0006 S/m | electrical conductivity (293.15 K, c1 = 0.009091): 0.0743 ± 0.0007 S/m | electrical conductivity (293.15 K, c1 = 0.01071): 0.0865 ± 0.0009 S/m | electrical conductivity (293.15 K, c1 = 0.01228): 0.098 ± 0.001 S/m | electrical conductivity (293.15 K, c1 = 0.01379): 0.109 ± 0.0011 S/m | electrical conductivity (293.15 K, c1 = 0.01525): 0.119 ± 0.0012 S/m | electrical conductivity (293.15 K, c1 = 0.01667): 0.125 ± 0.0013 S/m | electrical conductivity (293.15 K, c1 = 0.01758): 0.128 ± 0.0013 S/m | electrical conductivity (293.15 K, c1 = 0.01848): 0.13 ± 0.0013 S/m | electrical conductivity (293.15 K, c1 = 0.01936): 0.1315 ± 0.0013 S/m | electrical conductivity (293.15 K, c1 = 0.02021): 0.1332 ± 0.0013 S/m | electrical conductivity (293.15 K, c1 = 0.02105): 0.135 ± 0.0014 S/m | electrical conductivity (293.15 K, c1 = 0.02188): 0.137 ± 0.0014 S/m | electrical conductivity (293.15 K, c1 = 0.02268): 0.138 ± 0.0014 S/m | electrical conductivity (293.15 K, c1 = 0.02347): 0.14 ± 0.0014 S/m | electrical conductivity (293.15 K, c1 = 0.02424): 0.1411 ± 0.0014 S/m | electrical conductivity (293.15 K, c1 = 0.025): 0.1425 ± 0.0014 S/m | electrical conductivity (293.15 K, c1 = 0.02611): 0.145 ± 0.0015 S/m | electrical conductivity (293.15 K, c1 = 0.02718): 0.147 ± 0.0015 S/m | electrical conductivity (293.15 K, c1 = 0.02823): 0.149 ± 0.0015 S/m | electrical conductivity (293.15 K, c1 = 0.02925): 0.151 ± 0.0015 S/m | electrical conductivity (293.15 K, c1 = 0.03023): 0.1529 ± 0.0015 S/m | electrical conductivity (298.15 K, c1 = 0.001961): 0.0196 ± 0.0002 S/m | electrical conductivity (298.15 K, c1 = 0.003846): 0.0372 ± 0.0004 S/m | electrical conductivity (298.15 K, c1 = 0.00566): 0.0533 ± 0.0005 S/m | electrical conductivity (298.15 K, c1 = 0.007407): 0.0689 ± 0.0007 S/m | electrical conductivity (298.15 K, c1 = 0.009091): 0.0833 ± 0.0008 S/m | electrical conductivity (298.15 K, c1 = 0.01071): 0.0964 ± 0.001 S/m | electrical conductivity (298.15 K, c1 = 0.01228): 0.11 ± 0.0011 S/m | electrical conductivity (298.15 K, c1 = 0.01379): 0.1222 ± 0.0012 S/m | electrical conductivity (298.15 K, c1 = 0.01525): 0.1337 ± 0.0013 S/m | electrical conductivity (298.15 K, c1 = 0.01667): 0.1405 ± 0.0014 S/m | electrical conductivity (298.15 K, c1 = 0.01758): 0.1433 ± 0.0014 S/m | electrical conductivity (298.15 K, c1 = 0.01848): 0.146 ± 0.0015 S/m | electrical conductivity (298.15 K, c1 = 0.01936): 0.148 ± 0.0015 S/m | electrical conductivity (298.15 K, c1 = 0.02021): 0.1501 ± 0.0015 S/m | electrical conductivity (298.15 K, c1 = 0.02105): 0.1521 ± 0.0015 S/m | electrical conductivity (298.15 K, c1 = 0.02188): 0.154 ± 0.0015 S/m | electrical conductivity (298.15 K, c1 = 0.02268): 0.156 ± 0.0016 S/m | electrical conductivity (298.15 K, c1 = 0.02347): 0.158 ± 0.0016 S/m | electrical conductivity (298.15 K, c1 = 0.02424): 0.159 ± 0.0016 S/m | electrical conductivity (298.15 K, c1 = 0.025): 0.161 ± 0.0016 S/m | electrical conductivity (298.15 K, c1 = 0.02611): 0.1636 ± 0.0016 S/m | electrical conductivity (298.15 K, c1 = 0.02718): 0.166 ± 0.0017 S/m | electrical conductivity (298.15 K, c1 = 0.02823): 0.169 ± 0.0017 S/m | electrical conductivity (298.15 K, c1 = 0.02925): 0.171 ± 0.0017 S/m | electrical conductivity (298.15 K, c1 = 0.03023): 0.1733 ± 0.0017 S/m | electrical conductivity (303.15 K, c1 = 0.001961): 0.0218 ± 0.0002 S/m | electrical conductivity (303.15 K, c1 = 0.003846): 0.0411 ± 0.0004 S/m | electrical conductivity (303.15 K, c1 = 0.00566): 0.0592 ± 0.0006 S/m | electrical conductivity (303.15 K, c1 = 0.007407): 0.0762 ± 0.0008 S/m | electrical conductivity (303.15 K, c1 = 0.009091): 0.0921 ± 0.0009 S/m | electrical conductivity (303.15 K, c1 = 0.01071): 0.107 ± 0.0011 S/m | electrical conductivity (303.15 K, c1 = 0.01228): 0.1218 ± 0.0012 S/m | electrical conductivity (303.15 K, c1 = 0.01379): 0.136 ± 0.0014 S/m | electrical conductivity (303.15 K, c1 = 0.01525): 0.148 ± 0.0015 S/m | electrical conductivity (303.15 K, c1 = 0.01667): 0.157 ± 0.0016 S/m | electrical conductivity (303.15 K, c1 = 0.01758): 0.1605 ± 0.0016 S/m | electrical conductivity (303.15 K, c1 = 0.01848): 0.1634 ± 0.0016 S/m
